The numbers were not newly measured in patent US20230270851A1, “METHODS FOR THE TREATMENT OF IDIOPATHIC ORBITAL INFLAMMATION AND RELATED CONDITIONS” (HORIZON THERAPEUTICS IRELAND DAC, priority 2020, published 2023), which cites them from elsewhere.

Data set [1] has as its target c-erbB2/HER2/neu receptor (Homo sapiens, UniProt P04626). To be noted: cited from earlier work.
In another data set the target is IGF-1R (Homo sapiens, UniProt P08069). To be noted: A-928605: purified enzyme; INSM-18: receptor activation; cited from earlier work.
IGF-1R, sequence (P08069 31-1367): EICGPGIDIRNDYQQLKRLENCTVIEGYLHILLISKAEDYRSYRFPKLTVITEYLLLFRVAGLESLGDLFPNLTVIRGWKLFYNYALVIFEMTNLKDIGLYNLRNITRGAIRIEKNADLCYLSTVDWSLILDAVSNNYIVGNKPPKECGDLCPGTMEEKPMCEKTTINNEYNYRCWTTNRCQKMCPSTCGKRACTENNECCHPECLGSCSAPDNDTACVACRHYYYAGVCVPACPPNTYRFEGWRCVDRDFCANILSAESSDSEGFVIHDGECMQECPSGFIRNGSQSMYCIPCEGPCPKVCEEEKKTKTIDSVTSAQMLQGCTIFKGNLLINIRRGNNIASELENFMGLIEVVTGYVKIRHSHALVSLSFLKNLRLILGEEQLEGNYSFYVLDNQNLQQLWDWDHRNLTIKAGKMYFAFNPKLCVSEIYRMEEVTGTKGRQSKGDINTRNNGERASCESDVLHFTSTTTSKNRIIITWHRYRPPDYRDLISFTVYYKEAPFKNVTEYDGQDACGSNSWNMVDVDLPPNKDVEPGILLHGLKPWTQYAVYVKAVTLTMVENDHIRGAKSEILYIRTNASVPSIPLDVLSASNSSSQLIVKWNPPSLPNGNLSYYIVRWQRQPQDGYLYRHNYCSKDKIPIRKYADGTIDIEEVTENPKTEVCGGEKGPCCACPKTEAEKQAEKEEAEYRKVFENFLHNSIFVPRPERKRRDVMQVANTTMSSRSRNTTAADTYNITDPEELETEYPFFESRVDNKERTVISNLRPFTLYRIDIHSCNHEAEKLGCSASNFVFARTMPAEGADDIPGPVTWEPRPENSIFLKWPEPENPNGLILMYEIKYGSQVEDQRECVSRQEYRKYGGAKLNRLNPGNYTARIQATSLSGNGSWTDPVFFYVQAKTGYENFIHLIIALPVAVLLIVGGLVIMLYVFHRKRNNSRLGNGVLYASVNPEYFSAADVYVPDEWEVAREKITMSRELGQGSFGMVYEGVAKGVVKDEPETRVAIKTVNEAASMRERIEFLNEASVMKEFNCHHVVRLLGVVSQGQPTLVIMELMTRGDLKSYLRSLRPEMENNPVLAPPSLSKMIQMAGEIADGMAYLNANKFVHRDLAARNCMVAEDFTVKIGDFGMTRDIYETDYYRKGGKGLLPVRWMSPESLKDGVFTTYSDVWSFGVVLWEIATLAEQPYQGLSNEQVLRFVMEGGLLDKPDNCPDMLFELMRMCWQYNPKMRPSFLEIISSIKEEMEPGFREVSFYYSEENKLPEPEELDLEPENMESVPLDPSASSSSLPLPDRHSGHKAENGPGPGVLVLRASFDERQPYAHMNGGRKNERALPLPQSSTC
The subject of data set [2] is susceptible tumor cell populations. To be noted: cited from earlier work.
For a further data set, the target named is IGF-IR (Homo sapiens, UniProt P08069). To be noted: cited from earlier work.
IGF-IR, sequence (P08069 31-1367): as above
The test system of another data set is neuroblastoma. To be noted: cited from earlier work.
The target of the next data set is ALK (Homo sapiens, UniProt Q9UM73). To be noted: cited from earlier work.
ALK, sequence (Q9UM73 19-1620, species assumed): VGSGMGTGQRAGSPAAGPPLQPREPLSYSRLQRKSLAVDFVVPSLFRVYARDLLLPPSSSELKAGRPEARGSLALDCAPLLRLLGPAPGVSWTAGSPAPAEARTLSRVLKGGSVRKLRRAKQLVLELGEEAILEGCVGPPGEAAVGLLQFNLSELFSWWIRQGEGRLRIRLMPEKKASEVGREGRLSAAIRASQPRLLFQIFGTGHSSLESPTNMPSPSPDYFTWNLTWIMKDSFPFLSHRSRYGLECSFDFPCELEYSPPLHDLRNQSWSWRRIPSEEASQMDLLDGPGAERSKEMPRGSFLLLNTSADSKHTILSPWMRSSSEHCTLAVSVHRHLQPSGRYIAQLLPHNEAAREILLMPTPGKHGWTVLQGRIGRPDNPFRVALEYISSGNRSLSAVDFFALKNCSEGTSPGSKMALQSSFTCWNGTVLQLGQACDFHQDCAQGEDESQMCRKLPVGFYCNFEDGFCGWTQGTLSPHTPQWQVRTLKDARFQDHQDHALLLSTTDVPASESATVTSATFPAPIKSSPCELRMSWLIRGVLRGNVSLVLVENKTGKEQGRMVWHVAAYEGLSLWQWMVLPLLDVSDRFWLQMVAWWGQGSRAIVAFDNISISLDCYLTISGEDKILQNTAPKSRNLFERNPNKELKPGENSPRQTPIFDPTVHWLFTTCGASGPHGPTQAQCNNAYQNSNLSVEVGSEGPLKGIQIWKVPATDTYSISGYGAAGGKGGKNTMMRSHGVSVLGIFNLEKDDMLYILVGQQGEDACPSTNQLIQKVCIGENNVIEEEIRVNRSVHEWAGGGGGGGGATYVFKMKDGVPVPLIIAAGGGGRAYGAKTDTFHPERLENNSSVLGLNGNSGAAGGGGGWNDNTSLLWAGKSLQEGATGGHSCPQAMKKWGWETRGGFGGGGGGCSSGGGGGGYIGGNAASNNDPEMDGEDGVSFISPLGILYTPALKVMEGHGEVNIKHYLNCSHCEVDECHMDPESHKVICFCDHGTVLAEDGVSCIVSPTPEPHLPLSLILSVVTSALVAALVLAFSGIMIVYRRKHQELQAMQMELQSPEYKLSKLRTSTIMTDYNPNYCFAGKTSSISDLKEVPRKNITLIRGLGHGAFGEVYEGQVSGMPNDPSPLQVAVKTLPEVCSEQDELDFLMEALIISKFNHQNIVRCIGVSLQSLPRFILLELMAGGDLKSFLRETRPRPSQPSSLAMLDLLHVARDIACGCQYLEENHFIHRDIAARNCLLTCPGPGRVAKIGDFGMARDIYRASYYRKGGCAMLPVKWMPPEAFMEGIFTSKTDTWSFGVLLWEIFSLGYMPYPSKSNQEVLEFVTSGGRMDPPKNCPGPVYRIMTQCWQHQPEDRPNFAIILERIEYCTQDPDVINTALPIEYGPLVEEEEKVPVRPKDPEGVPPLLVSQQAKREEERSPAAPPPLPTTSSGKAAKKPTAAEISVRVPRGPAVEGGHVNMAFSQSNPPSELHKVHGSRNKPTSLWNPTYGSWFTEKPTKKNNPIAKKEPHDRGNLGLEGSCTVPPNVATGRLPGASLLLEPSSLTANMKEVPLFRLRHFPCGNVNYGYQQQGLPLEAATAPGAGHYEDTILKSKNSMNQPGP
A further data set deals with tumors. To be noted: in vivo; cited from earlier work.
For data set [3] the following is noted: cited from earlier work.
Data set [4] relates to IGF-1 R-overexpressing tumor cells. To be noted: cited from earlier work.

SMILES strings stand for the structures.

c-erbB2/HER2/neu receptor, sequence (P04626 23-1255): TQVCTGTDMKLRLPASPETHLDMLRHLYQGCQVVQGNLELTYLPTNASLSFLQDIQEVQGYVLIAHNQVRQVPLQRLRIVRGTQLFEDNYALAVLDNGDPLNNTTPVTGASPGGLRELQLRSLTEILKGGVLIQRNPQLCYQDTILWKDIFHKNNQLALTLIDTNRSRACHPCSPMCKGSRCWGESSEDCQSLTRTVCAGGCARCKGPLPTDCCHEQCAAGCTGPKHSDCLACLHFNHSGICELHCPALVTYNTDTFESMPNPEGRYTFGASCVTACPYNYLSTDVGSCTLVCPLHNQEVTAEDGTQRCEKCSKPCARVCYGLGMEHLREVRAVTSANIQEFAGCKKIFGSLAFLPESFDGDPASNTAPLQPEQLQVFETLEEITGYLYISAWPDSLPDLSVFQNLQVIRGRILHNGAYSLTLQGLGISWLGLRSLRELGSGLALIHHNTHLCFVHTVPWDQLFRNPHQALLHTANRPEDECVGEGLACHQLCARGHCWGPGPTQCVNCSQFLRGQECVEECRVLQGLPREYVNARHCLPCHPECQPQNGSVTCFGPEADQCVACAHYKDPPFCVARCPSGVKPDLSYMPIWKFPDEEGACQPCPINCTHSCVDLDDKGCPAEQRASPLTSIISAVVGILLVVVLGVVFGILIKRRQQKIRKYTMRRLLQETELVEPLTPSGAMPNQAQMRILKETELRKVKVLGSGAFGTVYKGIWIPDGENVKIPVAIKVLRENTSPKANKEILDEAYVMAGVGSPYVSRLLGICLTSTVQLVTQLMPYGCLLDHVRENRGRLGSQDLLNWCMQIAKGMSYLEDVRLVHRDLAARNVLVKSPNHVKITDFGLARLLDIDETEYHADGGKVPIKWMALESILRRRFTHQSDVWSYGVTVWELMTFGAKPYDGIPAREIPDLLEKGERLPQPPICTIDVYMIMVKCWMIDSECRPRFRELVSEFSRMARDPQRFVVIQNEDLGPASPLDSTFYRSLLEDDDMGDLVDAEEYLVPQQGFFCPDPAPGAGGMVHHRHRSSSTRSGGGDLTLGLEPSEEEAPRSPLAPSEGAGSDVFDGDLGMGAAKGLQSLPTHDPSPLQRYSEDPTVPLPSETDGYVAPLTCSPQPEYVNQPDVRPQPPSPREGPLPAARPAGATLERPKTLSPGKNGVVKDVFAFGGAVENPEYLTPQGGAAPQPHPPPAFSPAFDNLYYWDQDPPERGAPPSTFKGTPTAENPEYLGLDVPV

Regarding `C[C@H](Cc1ccc(O)c(O)c1)[C@@H](C)Cc1ccc(O)c(O)c1` [INSM-18, nordihydroguaiaretic acid], in data set [1], the “inhibition of activation of the c-erbB2/HER2/neu receptor” value is recorded as “directly inhibits activation”. Moreover, the “inhibition of IGF-1R” value on IGF-1R is recorded as “directly inhibits activation”. Further, the “proliferation of susceptible tumor cell populations” value in data set [2] is “decreased proliferation”.

On to `Nc1ncnc2c1c(-c1ccc3[nH]c(Cc4ccccc4Cl)nc3c1)nn2[C@H]1CC[C@H](N2CCOCC2)CC1` [Example A-928605], for which the “inhibition of intracellular IGF-IR phosphorylation” value on IGF-IR is given as “potent inhibitor”. Moreover, the “inhibition of IGF-1R” value at IGF-1R is on record as “potent inhibitor”.

On to `COc1cc(N2CCC(N)CC2)ccc1Nc1ncc(Cl)c(-c2c[nH]c3ccccc23)n1` [AZD3463], for which, in the data set with neuroblastoma (neuroblastoma), the apoptosis entry is given as “inducing apoptosis”. Moreover, the neuroblastoma growth result with neuroblastoma (overcoming crizotinib resistance) is listed as “inhibition of neuroblastoma growth”. Further, the “inhibition of IGF-1R” value on IGF-1R is on record as “potent”. Also, the “inhibition of ALK” value on ALK is given as “potent”.

For `COCCN1CCN(CCn2ccc(Nc3ncc4c(n3)[C@@H](C)Cc3nn(C)c(-c5ccccc5)c3-4)n2)CC1` [BI885578], in the data set with tumors, the apoptosis in tumors result is recorded as “induction of apoptosis” and the “cell proliferation in tumors” value is on record as “inhibition of cell proliferation”. Further, in data set [3], the in vivo half-life result is “short”. Moreover, in [3] (in vivo), the intestinal absorption result is on record as “rapid” and the metabolic clearance result is listed as “rapid”.

Take `CCOC(=O)N1CCC(Nc2cc(Cl)cc3c(S(=O)(=O)N4CCO[C@H](COc5ccccc5)C4)c(C(N)=O)[nH]c23)CC1` [PL-225B]: in data set [4], the tumor cell apoptosis entry is given as “induction of tumor cell apoptosis” and the tumor cell proliferation entry is reported as “inhibition of tumor cell proliferation”. On IGF-1R, the “inhibition of IGF-1R” value is “selectively inhibits”.
